In paper PMC7581941, “Schedule-Dependent Synergy Between the Histone Deacetylase Inhibitor Belinostat and the Dihydrofolate Reductase Inhibitor Pralatrexate in T-and B-cell Lymphoma Cells in vitro” (Frontiers in Cell and Developmental Biology, 2020):

Assays:
RFC = target: T1, RFC (Homo sapiens, UniProt P41440); assay: RFC competition assay: inhibition of [3H]-l-LV uptake in CCRF-CEM/7A cells (RFC+++); format: cell-based; details: 5 μM [3H]-l-LV, 2 min, 37°C, CCRF-CEM/7A cells; read-out: RFC: concentration of unlabeled drug necessary to inhibit [3H]-l-LV uptake by 50%
T1 construct: CEM-7A cells overexpress the RFC 30-fold over wild-type CCRF-CEM cells; endogenous in cells; host or cells: CCRF-CEM/7A (CEM-7A) cells
T1 sequence (P41440 1-591): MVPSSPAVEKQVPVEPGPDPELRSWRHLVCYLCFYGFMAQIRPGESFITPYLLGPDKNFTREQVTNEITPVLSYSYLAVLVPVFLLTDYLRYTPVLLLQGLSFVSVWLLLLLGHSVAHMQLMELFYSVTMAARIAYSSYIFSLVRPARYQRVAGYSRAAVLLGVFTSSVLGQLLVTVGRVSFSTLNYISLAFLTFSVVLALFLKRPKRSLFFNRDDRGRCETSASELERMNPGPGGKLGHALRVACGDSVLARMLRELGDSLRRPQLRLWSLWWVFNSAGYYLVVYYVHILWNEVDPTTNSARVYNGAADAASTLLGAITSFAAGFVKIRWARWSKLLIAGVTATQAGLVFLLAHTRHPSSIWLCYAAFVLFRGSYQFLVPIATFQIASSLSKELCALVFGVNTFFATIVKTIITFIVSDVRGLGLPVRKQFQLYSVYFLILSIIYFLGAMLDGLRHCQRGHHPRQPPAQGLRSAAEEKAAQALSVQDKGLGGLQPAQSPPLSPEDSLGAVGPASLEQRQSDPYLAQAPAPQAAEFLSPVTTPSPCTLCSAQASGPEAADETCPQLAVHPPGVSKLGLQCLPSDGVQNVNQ
Protocol: For FRα and FRβ, we used an intact cell binding assay for competitive binding with KB cells and CHO-FRβ cells, respectively. […] For RFC we used a competition assay with 5 μM [^3H]-l-LV in CCRF-CEM/7A cells (RFC+++) for 2 min at 37°C.
Transport was determined by evaluation of the uptake of 5 μM [^3H]-l-LV for 2 min in CCRF-CEM-7A cells, which overexpress RFC. […] Values are from one representative experiment in triplicate; performed three times. Error bars represent SEM, when not visible, they are within the size of the marker.

PCFT = target: T2, PCFT (Homo sapiens, UniProt Q96NT5); assay: PCFT competition assay: inhibition of [3H]-l-LV influx in CHO-cells lacking RFC and transfected with PCFT; format: cell-based; details: 2.5 μM [3H]-l-LV, pH 5.5, 3 min, 37°C; read-out: PCFT: concentration of unlabeled drug necessary to inhibit [3H]-LV influx
T2 construct: expressed in transfected cells; host or cells: CHO cells lacking RFC
T2 sequence (Q96NT5 1-459): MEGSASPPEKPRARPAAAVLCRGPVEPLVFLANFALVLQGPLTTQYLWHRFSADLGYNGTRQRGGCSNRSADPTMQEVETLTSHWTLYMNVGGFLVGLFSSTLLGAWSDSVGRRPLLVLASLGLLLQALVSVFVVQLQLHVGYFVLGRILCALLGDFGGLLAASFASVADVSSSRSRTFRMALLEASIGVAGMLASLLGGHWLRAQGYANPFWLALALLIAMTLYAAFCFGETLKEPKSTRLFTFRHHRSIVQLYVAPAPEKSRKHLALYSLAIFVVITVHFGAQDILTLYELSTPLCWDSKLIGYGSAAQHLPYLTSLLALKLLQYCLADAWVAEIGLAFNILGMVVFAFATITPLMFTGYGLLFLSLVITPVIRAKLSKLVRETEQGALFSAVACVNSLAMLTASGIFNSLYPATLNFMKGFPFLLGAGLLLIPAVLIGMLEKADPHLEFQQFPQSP
Protocol: The affinity for PCFT of PLX was assessed in competition with 2.5 μM ^3H-l-LV at pH 5.5 in CHO-cells lacking RFC and transfected with PCFT. […] […] Also for PCFT relative affinities were expressed as the concentration of unlabeled drug necessary to inhibit [^3H]-LV influx.

FRα = target: T3, FRα (Homo sapiens, UniProt P15328); assay: Intact cell binding assay, displacement of radio-active folic acid from KB cells; details: inverse ratio of compound to displace 50% of radio-active folic acid, folic acid set at 1
T3 construct: endogenous in cells; host or cells: KB cells
Protocol: In order to determine to which extent PLX was a substrate for either the folate receptors, RFC or PCFT we used competition experiments in cell lines overexpressing either transporter ([Westerhof et al., 1995a], [b]; [Jansen et al., 1997]; [Ifergan et al., 2008]; [Lasry et al., 2008]; [van der Heijden et al., 2009]). For FRα and FRβ, we used an intact cell binding assay for competitive binding with KB cells and CHO-FRβ cells, respectively. […] For RFC we used a competition assay with 5 μM [^3H]-l-LV in CCRF-CEM/7A cells (RFC+++) for 2 min at 37°C. CEM-7A cells overexpress the RFC 30-fold over wild-type CCRF-CEM cells ([Jansen et al., 1990], [1997]).

T3 sequence (P15328 25-257): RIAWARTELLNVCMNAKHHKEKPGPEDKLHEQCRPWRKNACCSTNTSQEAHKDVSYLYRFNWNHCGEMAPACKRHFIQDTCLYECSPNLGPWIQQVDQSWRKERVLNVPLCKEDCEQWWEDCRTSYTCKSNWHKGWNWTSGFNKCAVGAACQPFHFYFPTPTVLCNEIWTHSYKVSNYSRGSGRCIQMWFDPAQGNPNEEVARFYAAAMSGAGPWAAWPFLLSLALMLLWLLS

IC50 (RFC): 5.5 ± 0.7 µM
IC50 (PCFT): 4 ± 0.1 µM
FR-α relative affinity (FRα): 0.073 ± 0.0010
SMILES: Nc1nc(=O)c2c([nH]1)NC[C@H](CNc1ccc(C(=O)N[C@@H](CCC(=O)O)C(=O)O)cc1)N2C=O [l-LV, l-Leucovorin]
